Legend:
P-gp = P-gp (Homo sapiens, UniProt P08183); experiment: Intracellular DOX accumulation assay in LCC6MDR cells
BCRP = target: T1, BCRP (Homo sapiens, UniProt Q9UNQ0); experiment: BCRP-modulating activity in HEK293/R2 cells (MTS); type: cell-based; details: 1 μM, HEK293/R2
T1 construct: expressed in transfected cells; host or cells: HEK293/R2
T1 sequence (Q9UNQ0 1-655): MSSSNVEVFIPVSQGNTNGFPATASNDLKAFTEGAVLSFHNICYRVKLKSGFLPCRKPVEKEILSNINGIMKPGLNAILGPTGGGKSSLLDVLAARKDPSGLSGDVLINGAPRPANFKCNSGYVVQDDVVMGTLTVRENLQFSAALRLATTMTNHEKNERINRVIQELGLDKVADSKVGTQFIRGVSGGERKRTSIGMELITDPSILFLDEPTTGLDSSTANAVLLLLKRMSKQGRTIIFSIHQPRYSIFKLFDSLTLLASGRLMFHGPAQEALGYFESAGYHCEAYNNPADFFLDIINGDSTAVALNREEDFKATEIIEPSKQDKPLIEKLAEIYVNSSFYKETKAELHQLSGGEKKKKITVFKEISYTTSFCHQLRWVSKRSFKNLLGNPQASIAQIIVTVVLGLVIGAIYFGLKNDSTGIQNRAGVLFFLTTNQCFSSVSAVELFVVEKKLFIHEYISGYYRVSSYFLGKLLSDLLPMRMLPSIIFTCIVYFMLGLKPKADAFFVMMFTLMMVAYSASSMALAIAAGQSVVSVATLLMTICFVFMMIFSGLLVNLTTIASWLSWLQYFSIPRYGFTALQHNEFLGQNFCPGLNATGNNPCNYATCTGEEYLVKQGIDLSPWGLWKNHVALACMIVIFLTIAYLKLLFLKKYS
Method: The final volume in each well of the 96-well plate was 200 μL. The plate was then incubated for 5 days at 37 °C. The cell viability was determined using an MTS assay as reported previously.

[1] = Cytotoxicity assay (MTS, 3 days), LCC6; type: cell-based; details: human, LCC6 cells
Method: To each well of 96-well plate, 10,000 cells of LCC6, LCC6MDR or L929 were incubated with different concentrations of FM04 (0, 0.4, 1.2, 3.7, 11, 33 and 100 μM). The final volume in each well of 96-well plate was 100 μL and the plate was incubated for 3 days at 37 °C. The cell viability was determined using MTS assay as reported previously.

CYP2C8 = target: T2, CYP2C8 (Homo sapiens, UniProt P10632); experiment: PTX metabolism in human liver microsomes: 6α-OHP formation; type: in vitro ADME; details: HLM
T2 construct: tissue Research Institute for Liver Diseases (Shanghai); host or cells: 50-donor pooled human liver microsomes
T2 sequence (P10632 1-490): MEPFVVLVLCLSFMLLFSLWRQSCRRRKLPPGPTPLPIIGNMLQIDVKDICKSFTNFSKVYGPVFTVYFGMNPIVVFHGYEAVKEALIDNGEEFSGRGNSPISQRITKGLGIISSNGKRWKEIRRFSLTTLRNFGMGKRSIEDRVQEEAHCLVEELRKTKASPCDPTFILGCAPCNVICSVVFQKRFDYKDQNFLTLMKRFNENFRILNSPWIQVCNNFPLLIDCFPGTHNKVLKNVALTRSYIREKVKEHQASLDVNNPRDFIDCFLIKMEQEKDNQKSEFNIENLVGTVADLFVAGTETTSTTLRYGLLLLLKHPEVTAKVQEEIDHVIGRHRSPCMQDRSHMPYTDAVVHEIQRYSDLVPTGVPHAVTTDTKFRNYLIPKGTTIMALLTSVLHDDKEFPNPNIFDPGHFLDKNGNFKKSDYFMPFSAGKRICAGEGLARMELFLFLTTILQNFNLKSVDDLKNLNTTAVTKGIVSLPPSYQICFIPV
Method: Figure 7 Mechanistic study of FM04 to increase the oral PTX absorption. (A) transepithelial permeability of PTX in Caco-2 transwell assay. When confluent monolayer of Caco2 cells was formed on the transwell, the permeability of PTX (10 μM) was studied with or without FM04 (10 μM). For apical to basolateral transport (A to B), compound was added at the apical side (donor) and samples of the medium collected at the basal side (receiver) at 0, 20, 40, 60, 80, 100 and 120 min and vice versa for basal to apical transport (B to A). The PTX level was determined using UPLC-MS/MS. The relative % of PTX was presented as mean ± standard error of mean. N = 2–3 independent experiments. Impact of FM04 on PTX metabolism. […] After incubation, the levels of PTX, metabolites 6α-hydroxpaclitaxel (6α-OHP) and p3′-hydroxpaclitaxel (p3-OHP) were determined by HPLC-MS/MS. (B) changes in PTX. (C) changes in 6α-OHP. (D) changes in p3-OHP. […]
Drug solutions of PTX and FM04 were prepared in methanol. […] PTX and PTX metabolites were immediately analyzed by UPLC-MS/MS on the same day.
[^13C6]-paclitaxel (CAS: 379688-61-6) was the internal standard (IS) and purchased from Alsachim. Fifteen microliters of 10 μg/mL internal standard (IS) was added to all samples and calibration standards for quantification. […] PTX and both metabolites were semi-quantified base on the peak area ratio of the analyte/internal standard.

Sequence of P-gp (P08183 whole entry): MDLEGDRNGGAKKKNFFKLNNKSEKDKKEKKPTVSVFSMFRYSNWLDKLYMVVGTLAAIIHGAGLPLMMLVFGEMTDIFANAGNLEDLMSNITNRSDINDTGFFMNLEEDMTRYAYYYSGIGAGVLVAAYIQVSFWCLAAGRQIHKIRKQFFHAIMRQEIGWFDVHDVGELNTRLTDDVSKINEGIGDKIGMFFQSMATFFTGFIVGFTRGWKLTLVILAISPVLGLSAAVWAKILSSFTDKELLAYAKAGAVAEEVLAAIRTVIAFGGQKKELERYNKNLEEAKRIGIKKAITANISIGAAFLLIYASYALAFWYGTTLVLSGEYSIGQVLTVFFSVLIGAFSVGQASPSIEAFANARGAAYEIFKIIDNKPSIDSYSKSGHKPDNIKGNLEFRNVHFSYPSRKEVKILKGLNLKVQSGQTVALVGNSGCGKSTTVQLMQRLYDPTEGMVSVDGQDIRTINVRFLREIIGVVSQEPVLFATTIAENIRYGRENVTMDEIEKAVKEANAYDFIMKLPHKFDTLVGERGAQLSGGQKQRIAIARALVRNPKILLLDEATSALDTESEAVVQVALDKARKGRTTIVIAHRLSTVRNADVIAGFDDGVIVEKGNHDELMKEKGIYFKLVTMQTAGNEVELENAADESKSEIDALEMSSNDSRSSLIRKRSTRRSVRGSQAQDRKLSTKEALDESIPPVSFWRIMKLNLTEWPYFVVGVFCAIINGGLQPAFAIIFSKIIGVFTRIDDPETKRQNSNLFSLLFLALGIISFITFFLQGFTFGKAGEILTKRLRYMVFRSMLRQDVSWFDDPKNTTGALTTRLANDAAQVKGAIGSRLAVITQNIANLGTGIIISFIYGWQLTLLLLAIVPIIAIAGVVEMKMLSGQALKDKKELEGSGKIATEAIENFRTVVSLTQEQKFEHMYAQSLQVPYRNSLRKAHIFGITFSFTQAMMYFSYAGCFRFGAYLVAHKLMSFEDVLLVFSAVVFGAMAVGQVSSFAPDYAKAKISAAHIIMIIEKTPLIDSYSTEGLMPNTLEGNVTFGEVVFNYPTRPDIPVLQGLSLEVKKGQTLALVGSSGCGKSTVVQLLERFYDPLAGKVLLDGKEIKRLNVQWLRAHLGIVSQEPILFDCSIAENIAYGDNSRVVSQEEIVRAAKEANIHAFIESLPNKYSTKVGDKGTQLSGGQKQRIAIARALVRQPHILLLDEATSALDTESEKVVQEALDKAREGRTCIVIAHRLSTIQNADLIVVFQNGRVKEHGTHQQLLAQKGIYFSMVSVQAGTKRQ

SMILES: O=c1cc(-c2ccc(OCCOCCNCc3ccccc3)cc2)oc2ccccc12 [FM04, 2-(4-(2-(2-(benzylamino)ethoxy)ethoxy)phenyl)-4H-chromen-4-one]
- EC50 (P-gp): 0.064 µM
- reversal of BCRP-mediated topotecan resistance (BCRP): did not reverse BCRP-mediated topotecan resistance
- IC50 at 3 days [1]: 10.3 ± 0.2 µM
- decrease of the level of 6α-OHP (CYP2C8; FM04 10 μM): 44%
- decrease of the level of 6α-OHP (CYP2C8; FM04 20 μM): 48%

Source: article PMC9739180, “Discovery of a Flavonoid FM04 as a Potent Inhibitor to Reverse P-Glycoprotein-Mediated Drug Resistance in Xenografts and Improve Oral Bioavailability of Paclitaxel” (International Journal of Molecular Sciences, 2022)
